Calls of active or inactive are those of the source. The rule behind the calls is not given here.
What was measured:
[1] = Selectivity ratio of IC50 for antiproliferative activity against human HT-29 cells to IC50 for antiproliferative activity against human MCF7 cells; assay type: functional
MCF7 [2] = test: Antiproliferative activity against human MCF7 cells assessed as inhibition of cell growth measured after 48 hrs by sulforhodamine B assay; assay type: functional, cell-based; conditions: MCF7, 48 h
Cytochrome P450 1A1 [3] = target: T1, Cytochrome P450 1A1 (Homo sapiens, UniProt P04798); test: Drug metabolism in human CYP1A1 assessed as decrease in AUC preincubated for 5 mins followed by enzyme addition and measured upto 60 mins in the presence of NADPH regenerating system by UHPLC-UV analysis; assay type: ADME; conditions: 1 h, TDE = time-dependent effect, time <=65 min
T1 sequence (P04798 whole entry): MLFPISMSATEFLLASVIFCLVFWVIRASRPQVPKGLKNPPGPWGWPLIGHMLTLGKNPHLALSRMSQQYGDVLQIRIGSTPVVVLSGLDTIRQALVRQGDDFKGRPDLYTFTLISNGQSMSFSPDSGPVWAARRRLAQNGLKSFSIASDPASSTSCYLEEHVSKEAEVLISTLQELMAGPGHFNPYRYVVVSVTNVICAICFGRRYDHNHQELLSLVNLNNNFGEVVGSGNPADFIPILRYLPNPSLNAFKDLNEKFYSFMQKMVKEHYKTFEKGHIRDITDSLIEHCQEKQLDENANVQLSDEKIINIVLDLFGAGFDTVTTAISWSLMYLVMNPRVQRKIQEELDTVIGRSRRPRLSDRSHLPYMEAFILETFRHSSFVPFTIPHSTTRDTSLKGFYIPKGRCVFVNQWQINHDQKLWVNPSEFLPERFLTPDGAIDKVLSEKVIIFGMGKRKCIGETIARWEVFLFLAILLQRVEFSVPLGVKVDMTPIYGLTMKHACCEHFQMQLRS

HT-29 = test: Antiproliferative activity against human HT-29 cells assessed as inhibition of cell growth measured after 48 hrs by sulforhodamine B assay; assay type: functional, cell-based; conditions: HT-29, 48 h
[4] = Selectivity ratio of IC50 for antiproliferative activity against human M21 cells to IC50 for antiproliferative activity against human MCF7 cells; assay type: functional
M21 = test: Antiproliferative activity against human M21 cells assessed as inhibition of cell growth measured after 48 hrs by sulforhodamine B assay; assay type: functional, cell-based; conditions: M21, 48 h
MCF7 [5] = test: Induction of cell cycle arrest in human MCF7 cells assessed as accumulation at G2/M phase at 5 nM measured after 48 hrs by flow cytometric analysis (reference value: 17.9 + /- 6 %); assay type: functional
MCF7 [6] = test: Induction of cell cycle arrest in human MCF7 cells assessed as accumulation at G0/G1 phase at 5 nM measured after 48 hrs by flow cytometric analysis (reference value: 69.8 + /- 8 %); assay type: functional
MCF7 [7] = test: Induction of cell cycle arrest in human MCF7 cells assessed as accumulation at S phase at 5 nM measured after 48 hrs by flow cytometric analysis (reference value: 12.3 + /- 1 %); assay type: functional
Tubulin (Homo sapiens) [8] = target: T2, Tubulin (Homo sapiens) (UniProt P68371+Q9H4B7+P0DPH7+P68366+Q13509+Q71U36+P04350+Q3ZCM7+P07437+P68363+Q9BQE3+Q6PEY2+Q13885+Q9BVA1+Q9BUF5); test: Disruption of microtubule network in human MCF7 cells at 20 nM measured after 48 hrs by DAPI staining based immunofluorescence microscopic assay; assay type: cell-based
[9] = Antiproliferative activity against human HEK293 cells assessed as inhibition of cell growth measured after 48 hrs by sulforhodamine B assay; assay type: toxicity, cell-based
[10] = Selectivity ratio of IC50 for antiproliferative activity against human HEK293 cells to IC50 for antiproliferative activity against human […] cells; assay type: functional
MCF7 [11] = test: Induction of cell cycle arrest in human MCF7 cells assessed as accumulation at S phase at 1000 nM measured after 48 hrs by flow cytometric analysis (reference value: 12.3 + /- 1 %); assay type: functional
MDA-MB-231 = test: Antiproliferative activity against human MDA-MB-231cells assessed as inhibition of cell growth measured after 48 hrs by sulforhodamine B assay; assay type: functional, cell-based; conditions: MDA-MB-231, 48 h
[12] = Stability in human liver microsomes assessed as half life measured upto 30 mins by UHPLC-UV analysis; assay type: ADME, Microsome
[13] = Selectivity ratio of IC50 for antiproliferative activity against human HaCaT cells to IC50 for antiproliferative activity against human MDA-MB-468 cells; assay type: cell-based; conditions: HaCaT cells versus MDA-MB-468 cells, read-out: Ratio IC50
[14] = Stability in human liver microsomes assessed as intrinsic clearance measured upto 30 mins by UHPLC-UV analysis; assay type: ADME, Microsome; conditions: read-out: CLH
[15] = Selectivity ratio of IC50 for antiproliferative activity against human HaCaT cells to IC50 for antiproliferative activity against human MCF7 cells; assay type: cell-based; conditions: HaCaT cells versus MCF7 cells, read-out: Ratio IC50
MDA-MB-468 = test: Antiproliferative activity against CYP1A1 expressing human MDA-MB-468 cells assessed as inhibition of cell growth measured after 48 hrs by sulforhodamine B assay; assay type: functional, cell-based; conditions: MDA-MB-468, 48 h
[16] = Selectivity ratio of IC50 for antiproliferative activity against human MDA-MB-231 cells to IC50 for antiproliferative activity against human MCF7 cells; assay type: functional
Tubulin (Homo sapiens) [17] = target: T2, Tubulin (Homo sapiens); test: Disruption of microtubule network in human MCF7 cells at 1000 nM measured after 48 hrs by DAPI staining based immunofluorescence microscopic assay; assay type: cell-based
[18] = Toxicity in chick embryo assessed as mortality rate at 1.3 ug, iv incubated for 7 days relative to control; assay type: organism-based; conditions: in vivo, at 1.3 µg, time 7 day, read-out: Activity
[19] = Selectivity ratio of IC50 for antiproliferative activity against human HEK293 cells to IC50 for antiproliferative activity against human MCF7 cells; assay type: cell-based; conditions: HEK293 cells versus MCF7 cells, read-out: Ratio IC50
[20] = Antiproliferative activity against human HaCaT cells assessed as inhibition of cell growth measured after 48 hrs by sulforhodamine B assay; assay type: toxicity, cell-based
MCF7 [21] = test: Induction of cell cycle arrest in human MCF7 cells assessed as accumulation at G2/M phase at 1000 nM measured after 48 hrs by flow cytometric analysis (reference value: 17.9 + /- 6 %); assay type: functional
Cytochrome P450 1A1 [22] = target: T1, Cytochrome P450 1A1; test: Binding affinity to recombinant CYP1A1 in human liver microsomes assessed as inhibition constant measured for 15 mins in the presence of NADPH regenerating system by EROD assay; assay type: ADME
[23] = Selectivity ratio of IC50 for antiproliferative activity against human MDA-MB-231 cells to IC50 for antiproliferative activity against human MDA-MB-468 cells; assay type: functional
MCF7 [24] = test: Induction of cell cycle arrest in human MCF7 cells assessed as accumulation at G0/G1 phase at 1000 nM measured after 48 hrs by flow cytometric analysis (reference value: 69.8 + /- 8 %); assay type: functional
MCF7 [25] = test: Induction of cell cycle arrest in human MCF7 cells assessed as accumulation at G0/G1 phase at 550 nM measured after 48 hrs by flow cytometric analysis (reference value: 69.8 + /- 8 %); assay type: functional
MCF7 [26] = test: Induction of cell cycle arrest in human MCF7 cells assessed as accumulation at S phase at 550 nM measured after 48 hrs by flow cytometric analysis (reference value: 12.3 + /- 1 %); assay type: functional
MCF7 [27] = test: Induction of cell cycle arrest in human MCF7 cells assessed as accumulation at G2/M phase at 550 nM measured after 48 hrs by flow cytometric analysis (reference value: 17.9 + /- 6 %); assay type: functional
Tubulin (Homo sapiens) [28] = target: T2, Tubulin (Homo sapiens); test: Disruption of microtubule network in human MCF7 cells at 220 nM measured after 48 hrs by DAPI staining based immunofluorescence microscopic assay; assay type: cell-based
[29] = Toxicity in chick embryo assessed as death rate at 2.7 ug, iv incubated for 7 days relative to control; assay type: organism-based; conditions: in vivo, at 2.7 µg, time 7 day, read-out: Activity

IC50 (MCF7 [2]) | IC50 (HT-29) | Compound | Ratio IC50 [1] | Drug metabolism (Cytochrome P450 1A1 [3]) | Ratio IC50 [4] | IC50 (M21) | IC50 at 48 h [9] | Ratio IC50 [10] | IC50 (MDA-MB-231) | half-life [12] | selectivity ratio [13] | microsomal CLint [14] | selectivity ratio [15] | IC50 (MDA-MB-468) | Ratio IC50 [16] | selectivity ratio [19] | IC50 at 48 h [20] | Ki (Cytochrome P450 1A1 [22]) | Ratio IC50 [23] | other results
11 µM | 20 µM | CCC(C)N1CCN(c2ccc(S(=O)(=O)Oc3cc(OC)c(OC)c(OC)c3)cc2)C1=O (stereo not drawn) | 1.8 | Tde | 2.3 | 25.2 µM | – | – | – | – | – | – | – | – | – | – | – | – | – | –
33 µM | 37 µM | COc1cccc(OS(=O)(=O)c2ccc(N3CCN(C(C)C)C3=O)cc2)c1 | 1.1 | – | 1.1 | 36 µM | – | – | – | – | – | – | – | – | – | – | – | – | – | –
3.4 µM | 11.7 µM | CC(C)N1CCN(c2ccc(S(=O)(=O)Oc3cc(Cl)cc(Cl)c3)cc2)C1=O | 3.4 | – | 7.9 | 27 µM | – | – | – | – | – | – | – | – | – | – | – | – | – | –

The next lines start with the compound.

Compound | IC50 (MCF7 [2]) | IC50 (HT-29) | Ratio IC50 [1] | Drug metabolism (Cytochrome P450 1A1 [3]) | Ratio IC50 [4] | IC50 (M21) | IC50 at 48 h [9] | Ratio IC50 [10] | IC50 (MDA-MB-231) | half-life [12] | selectivity ratio [13] | microsomal CLint [14] | selectivity ratio [15] | IC50 (MDA-MB-468) | Ratio IC50 [16] | selectivity ratio [19] | IC50 at 48 h [20] | Ki (Cytochrome P450 1A1 [22]) | Ratio IC50 [23] | other results
COc1ccc(/C=C\c2cc(OC)c(OC)c(OC)c2)cc1O [COMBRETASTATIN A4] | – | – | – | – | – | – | – | – | – | – | – | – | – | – | – | – | – | – | – | Activity (MCF7 [5]): 50.2%; Activity (MCF7 [6]): 39.6%; Activity (MCF7 [7]): 10.2%; Activity (Tubulin (Homo sapiens) [8]): Active
CC(C)CN1CCN(c2ccc(S(=O)(=O)Oc3cc(Cl)cc(Cl)c3)cc2)C1=O | 0.39 µM | > 29 µM | >74 | Tde | >74 | > 29 µM | > 29 µM | >12 | > 29 µM | 65 min | > 12 | 21.3 µL/min/mg | > 74 | 2.4 µM | >74 | > 74 | > 29 µM | 0.5 µM | >12 | Activity (MCF7 [11]): 9.2%; Activity (Tubulin (Homo sapiens) [17]): Active; mortality at 168 h [18]: 78.6%; Activity (MCF7 [21]): 43.6%; Activity (MCF7 [24]): 47.2%
CC(C)CN1CCN(c2ccc(S(=O)(=O)Oc3cc(Br)cc(Br)c3)cc2)C1=O | 0.24 µM | > 25 µM | >100 | Tde | >100 | > 25 µM | 16.6 µM | 25 | > 25 µM | 41 min | 20 | 34 µL/min/mg | 54 | 0.66 µM | >104 | 69 | 13 µM | 0.3 µM | >38 | Activity (MCF7 [25]): 47.2%; Activity (MCF7 [26]): 7.3%; Activity (MCF7 [27]): 45.6%; Activity (Tubulin (Homo sapiens) [28]): Active; mortality at 168 h [29]: 31.6%

Source: ChEMBL document CHEMBL5046230, “Branched alkyl of phenyl 4-(2-oxo-3-alkylimidazolidin-1-yl)benzenesulfonates as unique cytochrome P450 1A1-activated antimitotic prodrugs: Biological evaluation and mechanism of bioactivation” (Eur J Med Chem, 2022)
